In ChEMBL document CHEMBL1152001 (Bioorg Med Chem Lett, 1993) one finds IC50 data, which are given here for 4 compounds.

Non-standard residues stand in square brackets, D forms with d. Residues, ends and D or L forms follow the SMILES beside them. pGlu = O=C1CC[C@@H](C(=O)O)N1

The target in this assay is Substance-P receptor (Rattus norvegicus, UniProt P14600). Briefly: Tested for inhibition of tachykinin 1 (NK1) receptor in rat brain synaptosomal membranes using [125I]BH-SP as radioligand. The format is cell membranes, Membrane.
Substance-P receptor, sequence (P14600 whole entry): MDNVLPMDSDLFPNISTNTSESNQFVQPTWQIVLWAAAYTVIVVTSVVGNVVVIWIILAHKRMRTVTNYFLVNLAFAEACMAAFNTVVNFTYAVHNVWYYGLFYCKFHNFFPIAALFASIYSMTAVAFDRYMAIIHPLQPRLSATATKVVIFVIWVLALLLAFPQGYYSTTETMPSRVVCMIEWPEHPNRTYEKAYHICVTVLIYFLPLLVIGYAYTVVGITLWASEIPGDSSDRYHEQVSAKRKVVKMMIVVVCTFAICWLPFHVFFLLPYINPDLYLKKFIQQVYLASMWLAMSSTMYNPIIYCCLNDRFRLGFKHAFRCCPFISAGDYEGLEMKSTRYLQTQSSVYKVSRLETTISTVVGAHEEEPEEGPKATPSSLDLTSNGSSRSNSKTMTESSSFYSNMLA

In turn, `CSCC[C@H](NC(=O)[C@H](CC(C)C)NC(=O)CNC(=O)[C@H](Cc1ccc(O)cc1)NC(=O)[C@H](Cc1ccccc1)NC(=O)[C@H](CCCCN)NC(=O)[C@H](CC(N)=O)NC(=O)[C@@H]1CCCN1C(=O)[C@H](CC(=O)O)NC(=O)[C@H](C)NC(=O)[C@@H]1CCC(=O)N1)C(N)=O` ([pGlu]ADPNKFYGLM-NH2) had an IC50 of 2.3 nM.

`CC[C@H](C)[C@H](NC(=O)[C@H](Cc1ccccc1)NC(=O)[C@H](C)NC(=O)[C@H](CC(=O)O)NC(=O)[C@H](CCCCN)NC(=O)[C@H](CO)NC(=O)[C@@H]1CCCN1C(=O)[C@@H]1CCC(=O)N1)C(=O)NCC(=O)N[C@@H](CC(C)C)C(=O)N[C@@H](CCSC)C(N)=O` ([pGlu]PSKDAFIGLM-NH2) came in with an IC50 of 31 nM.

Take `CSCC[C@H](NC(=O)[C@H](CC(C)C)NC(=O)CNC(=O)[C@@H](NC(=O)[C@H](Cc1ccccc1)NC(=O)[C@H](CCC(N)=O)NC(=O)[C@H](CC(=O)O)NC(=O)[C@H](CO)NC(=O)[C@H](CCCCN)NC(=O)[C@@H]1CCCN1C(=O)[C@@H](NC(=O)[C@@H](N)CC(=O)O)C(C)C)C(C)C)C(N)=O` [KASSININ]: the half-inhibitory concentration (IC50) stood at 75 nM.

In turn, `CSCC[C@H](NC(=O)[C@H](CC(C)C)NC(=O)CNC(=O)[C@@H](NC(=O)[C@H](Cc1ccccc1)NC(=O)[C@H](Cc1ccccc1)NC(=O)[C@H](CC(=O)O)NC(=O)[C@H](Cc1c[nH]cn1)NC(=O)[C@H](CCSC)NC(=O)[C@@H](N)CC(=O)O)C(C)C)C(N)=O` [NEUROKININ B] displayed an IC50 of 870 nM.
